Measurements reported in US20220362262A1, “METHODS AND COMPOSITIONS FOR TISSUE REGENERATION” (Institute of Zoology, Chinese Academy of Sciences, priority 2019, published 2022).
pEC50: −log10 of the molar value. Entries after “also recorded” stand apart in the source; their conditions may differ. Read-outs that look alike come from different tables or passages of the source.

What was measured:
[1] = system: PPARA; conditions: agonist of PPARA; cited from earlier work
[2] = system: PPARG; conditions: agonist of PPARG; cited from earlier work
[3] = system: muscle stem cells and myoblasts in gastrocnemius, quadriceps and TA muscle; assay: Stem cell and myoblast activation in skeletal muscles without injury, immunofluorescence 2 days after single bolus; type: in vivo, mice; conditions: gastrocnemius muscle, 2 days after intraperitoneal single bolus, with or without fenofibrate or WY-14643
Source text: (§1) Some tissues were flash frozen for cryosectioning.

[4] = system: cryoinjured tibialis anterior (TA) muscle
Protocol: Eight week old NOD scid gamma (NSG) or C57BL/6 mice were anaesthetized with a mixture of ketamine and xylazine (120 mg/kg and 8 mg/kg respectively) via intraperitoneal injection. After successful anesthetization, the skin over the tibialis anterior (TA) or gastrocnemius or quadriceps muscle was disinfected by wiping with 70% ethanol and a 3 mm incision was made over the TA muscle. A dry-ice-chilled 4-mm metal probe was directly applied onto the exposed skeletal muscle for three cycles of five seconds to induce cryo-injury. Thereafter, the incision was immediately sutured using a surgical suture stapler. Upon recovery under heat lamps for a period of 2 hours, the mice were randomly allocated to each treatment groups. […] Samples were serially sectioned until depleted and haemotoxylin and eosin (H&E) staining was performed on every 12th 5 um-thick tissue section. After microscopy imaging, the area of the cryo-injured myofibers was quantified using ImageJ. For western blot samples, TA muscles were snap-frozen in liquid nitrogen and homogenized in RIPA buffer (Thermo Fisher) supplemented with protease inhibitor cocktails I and II (Merck) and phosphatase inhibitor cocktail set III (Merck) using TissueLyser II (Qiagen).

[5] = system: cryoinjured TA muscle of aged and sarcopenic 2-year-old mice
Protocol: Liquid chromatography-tandem mass spectrometry (LC-MS/MS) metabolomics and lipidomics analyses were performed according to previously published protocols (Chong et al., 2012).
Eight week old NOD scid gamma (NSG) or C57BL/6 mice were anaesthetized with a mixture of ketamine and xylazine (120 mg/kg and 8 mg/kg respectively) via intraperitoneal injection. After successful anesthetization, the skin over the tibialis anterior (TA) or gastrocnemius or quadriceps muscle was disinfected by wiping with 70% ethanol and a 3 mm incision was made over the TA muscle. A dry-ice-chilled 4-mm metal probe was directly applied onto the exposed skeletal muscle for three cycles of five seconds to induce cryo-injury. Thereafter, the incision was immediately sutured using a surgical suture stapler. Upon recovery under heat lamps for a period of 2 hours, the mice were randomly allocated to each treatment groups. […] Samples were serially sectioned until depleted and haemotoxylin and eosin (H&E) staining was performed on every 12th 5 um-thick tissue section. After microscopy imaging, the area of the cryo-injured myofibers was quantified using ImageJ.
Tibialis anterior (TA) tissue samples embedded in paraffin were sectioned using a microtome and transferred onto Leica Microsystems Plus Slides. Some tissues were flash frozen for cryosectioning. Paraffin-embedded sections were deparaffinized in xylene (Merck) for 2 washes (10 mins) and then transferred sequentially into 100% EtOH (Merck), 100% EtOH, 95% EtOH and 70% EtOH (2 mins) at room temperature. The sections were then rehydrated in deionized water (3 mins). Antigen retrieval was carried out using the 2100 Retriever in sodium citrate buffer (Merck, pH 6.2, 30 mins). Slides were then cooled in cold PBS (15 mins) and blocked in blocking buffer at room temperature (30 mins). Primary antibody staining was conducted in blocking buffer at 4° C. overnight with the following antibodies, GFP (1:500, sc-9996, Santa Cruz), Pax7 (5 ug/ml, 042349, DSHB), MyoD (5 ug/ml, sc-377460, Santa Cruz), Ki67 (1:100, 14-5698-82, Thermo Fisher), embryonic MHC (Myh3; 1:100, sc-53091, Santa Cruz), PDGFRa (5 ug/mL, AF1062, R&D), F4/80 (1:100, ab6640, Abcam), PPARG (1:1000, 2443S, CST), and myosin heavy chain eFluor 660 (1:20, 50-6503-82, eBioscience). After the slides were washed thrice in PBS (10 mins) and counterstained with DAPI, secondary antibody staining for GFP was conducted in blocking buffer at room temperature (1 hr) with goat anti-mouse IgG secondary antibody, Alexa Fluor 488 (1:500, A11001, Thermo Fisher).

[6] = system: fibrosis in TA muscle, liver, skin and heart of 2-year old mice; assay: Aging-induced fibrosis and fibrotic precursors in 2-year old mice after daily injection; type: in vivo; conditions: for relative changes in the % fibrotic area (Masson trichrome staining) / relative changes in the percentage fraction of fibrotic precursors (PGDFRA-positive and Ki67-positive): 7 days post-injection, 2-year old mice
Source text: as §1

[7] = system: cryoinjured TA muscle; assay: Muscle regeneration after cryoinjury: regenerative index, myogenic proteins, myofiber diameter, grip strength after bolus injection; type: in vivo, mice
Source text: as §1

[8] = system: GFP+ human myocytes engrafted into cryoinjured TA muscle; conditions: myoblasts pre-treated 0-24 h, injected 24 h after cryoinjury
Source text: as §1

[9] = system: pure primary human myoblasts; assay: Pure primary human myoblasts treated with PGI2-related drugs (Western blot, qRT-PCR); type: cell-based; conditions: pure primary human myoblasts, relative to DMSO
[10] = system: primary human myoblasts / myocytes
Protocol: Primary human skeletal muscle (HSKM) progenitors (Gibco) were cultured on gelatin solution (0.1%, Merck-Millipore)-coated plate and incubated in a humidified atmosphere (5% CO2 and 37° C.) with growth medium composed of DMEM/F-12 (Gibco) supplemented with fetal bovine serum (FBS) (20%, GE Healthcare), L-glutamine (1%, Gibco) and penicillin-streptomycin (1%, Gibco). Confluent HSKM progenitors were induced to differentiate by replacing growth media with differentiation medium, comprising of DMEM/F-12, KnockOut Serum Replacement (2%, Gibco), L-glutamine (1%, Gibco) and penicillin-streptomycin (1%, Gibco).
RNA was extracted using TRIzol (Thermo Fisher) and reverse transcribed to cDNA with Superscript III (Thermo Fisher) according to manufacturer's instructions. The synthesized cDNA was diluted 5× in H2O before performing qPCR with KAPA SYBR FAST (Merck) on ABI Prism 7900HT (Applied Biosystems) real-time PCR system according to manufacturers' instructions.
Cells were washed with PBS (Thermo Fisher) and fixed with paraformaldehyde (PFA) (4%, Electron Microscopy Sciences) at room temperature for 10 mins. Cells were stained with primary antibody myosin heavy chain eFluor 660 (1:20, 50-6503-82, Thermo Fisher) at 4 C overnight. DAPI (Merck) was used as a nuclear counterstain according to manufacturer's recommendations. Stained cells were imaged with a Zeiss fluorescence microscope.

[11] = 2-year old mice, injected at 0 h after injury, 27 days post-injury

## Cc1cccc(Nc2cc(Cl)nc(SCC(=O)O)n2)c1C [WY-14643, pirinixic acid]
[1]
  pEC50: 6.20
[2]
  pEC50: 4.49
[3]
  percentage fraction of myoblasts (MyoD-positive cells): significantly increased
  percentage fraction of proliferative myoblasts (MyoD-positive Ki67-positive cells): significantly increased

## CN(CCOc1ccc(CC2SC(=O)NC2=O)cc1)c1ccccn1 (centres unmarked) [rosiglitazone]
[4]; injection at 24 h and 48 h, relative to control and 0 h
  MHC protein isoforms and α-actinin protein levels (Western blot): stronger expression
[4]; injection at 24 h and 48 h after injury, 4 days post-injury
  skeletal muscle regeneration (remaining necrotic area): improved skeletal muscle regeneration
[4]; intramuscular injection at 24 h post-cryoinjury, TA 4 days post-injury
  MyoD and MyoG protein expression (Western blot): elicited the strongest expression
[5]; 2-year old mice, injected at 0 h after injury, 6 days post-injury
  regenerative index (fraction of nuclei in embryonic MHC-positive myofibers): can restore aged muscle regeneration; also recorded: significantly improved
[5]; [11]
  fibrotic area in the TA muscle (Masson trichrome): can reverse the aged muscle fibrosis; also recorded: significantly reduced fibrosis
  grip strength: can partially restore grip strength
[5]; 2-year old mice, injected at 24 h and 48 h time-points
  regenerative index (fraction of nuclei in embryonic MHC-positive myofibers): did not show as strong an improvement
[5]; 2-year-old mice, 27 days after single intramuscular bolus
  body weight or aging-induced obesity: no significant changes; also recorded: insufficient to affect total body weight and obesity
[5]; 2-year-old mice, bolus at 0 h post-injury, day 6
  FAO intermediates (acyl-carnitines) / FAO flux in TA muscle, LC-MS/MS: led to an induction; also recorded: transiently increase FAO flux
[6]; TA muscle, daily injection
  relative changes in the % fibrotic area (Masson trichrome staining): partially reverse the aged muscle fibrosis; also recorded: significant reversal of aging-induced fibrosis
  relative changes in the percentage fraction of fibrotic precursors (PGDFRA-positive and Ki67-positive): partially suppress the aged muscle fibrotic precursors
[6]; heart tissue, daily injection
  relative changes in the % fibrotic area (Masson trichrome staining): partially reverse the aged cardiac fibrosis
  relative changes in the percentage fraction of fibrotic precursors (PGDFRA-positive and Ki67-positive): partially suppress the aged cardiac fibrotic precursors
[6]; liver tissue, daily injection
  relative changes in the % fibrotic area (Masson trichrome staining): partially reverse the aged liver fibrosis
  relative changes in the percentage fraction of fibrotic precursors (PGDFRA-positive and Ki67-positive): partially suppress the aged liver fibrotic precursors
[6]; liver, skin and heart, 2-year-old mice
  PDGFRA+ Ki67+ fibrotic precursor numbers in multiple non-skeletal muscle tissues: suppress
[6]; liver, skin and heart, daily injection, 2-year-old mice
  aging-induced fibrosis (fibrotic area) in multiple non-skeletal muscle tissues: significant reversal of aging-induced fibrosis
[6]; skin tissue, daily injection
  relative changes in the % fibrotic area (Masson trichrome staining): partially reverse the aged skin fibrosis
  relative changes in the percentage fraction of fibrotic precursors (PGDFRA-positive and Ki67-positive): partially suppress the aged skin fibrotic precursors
[7]; 14 days post-injury, 6-week old mice, prostaglandin at 0 h, rosiglitazone at 24 h post-injury
  grip strength: partially restore grip strength
[7]; TA muscle 6.5 days post-injury, prostaglandin at day 0, rosiglitazone at day 1
  hypertrophic growth (myofiber cross-sectional Feret diameters): increase hypertrophic growth
[7]; TA muscle 6.5 days post-injury, single bolus, combinations: prostaglandin at day 0, rosiglitazone at day 1, relative to DMSO vehicle
  regenerative index (fraction of nuclei in embryonic MHC-positive myofibers): significantly increase muscle regeneration
[8]
  MHC protein expression among the engrafting human myocytes: significantly enhanced
[9]
  H3K9ac and MyoD protein (Western blot): followed the same pattern of regulation as PPARG
  PPARG protein levels (Western blot): stabilize and/or upregulate
[10]; 0-24 h and 24-48 h time-windows, low density
  myogenesis (MHC protein and α-actinin immunostaining): significantly enhanced myogenesis
[10]; 0-24 h time-window, high density
  myotube/myofiber maturity and hypertrophy (immunofluorescence): more mature and hypertrophic human myotubes; also recorded: significantly more mature and hypertrophic; also recorded: induces myofibers with wider diameter and higher expression of MHC and α-actinin
[10]; 0-24 h time-window, low density, at the end of 96 h
  mRNA levels of myogenin (MYOG), adult type I myosin heavy chain (MYH7) and perinatal myosin heavy chain (MYH8): uniquely upregulated
[10]; different time-windows, low density conditions
  myocyte/myotube size and MHC, α-actinin expression (immunofluorescence): induces larger myocytes and myotubes with higher expression levels of MHC and α-actinin
[10]; other time-windows of treatment, low density, at the end of 96 h
  mRNA levels of MYOG, MYH7 and MYH8: no significant effects
[10]; other time-windows, low density
  myogenesis (MHC protein and α-actinin immunostaining): suppressed myogenesis
